Laboratory results reported in US10307471B2, “Immunity inducer for saccharide antigens” (NATIONAL INSTITUTE OF ADVANCED INDUSTRIAL SCIENCE AND …, priority 2013, dated 2019).
“Also recorded” adds a separate entry of the source.

Experiments:
immunogen = assay: Serum antibody titer to the immunogen after immunity induction (ELISA); assay type: in vivo, mouse; conditions: for serum antibody titer to the immunogen, IgM subclass: mouse serum 3 and 7 days after final immunization vs unimmunized, liposome method with Lipid-A, ELISA; for serum antibody titer to the immunogen, IgG subclass: mouse serum after final immunization (7 days where stated) vs unimmunized, only primary additional immunization; for antibody titer in the IgG subclass: antigen not specified, data not shown
Protocol: (§1) Each immunogen was subcutaneously immunized on the first day, and additional immunization was abdominally conducted after two weeks. The blood was collected after 3 days and 7 days from the additional immunization to prepare serums. Antibody titers in the obtained serums were evaluated by ELISA. An immunogen and a glycoprotein containing an objective carbohydrate were used as solid-phased antigens by ELISA, and each was evaluated as an antibody titer to the immunogen and an antibody titer to the objective carbohydrate (FIGS. 1 to 4).
In order to evaluate subclasses (IgM and IgG) of produced immunoglobulin, evaluation was conducted using antibodies specific to IgM and IgG as secondary antibodies. An antibody titer was evaluated as an activity of peroxidase that is a labeling enzyme of a secondary antibody. TMB was used as a chromogenic substrate of peroxidase, and an intensity of an absorbance at 450 nm after adding 2 N-sulfuric acid after the reaction was evaluated. FIGS. 1 to 3 illustrate antibody titers of IgM subclass, and FIG. 4 illustrates antibody titers of IgG subclass.
Next, each of racemic forms of various immunity inducers (a1, b1 and c1) synthesized in Examples (1-1), (1-2) and (1-3) was dissolved into s lipid containing cholesterol and phospholipid with an adjuvant (Lipid-A), and immunized a mouse being a host generally producing a monoclonal antibody (C3H/HeN strain) in a liposome method (Eur. J. Immunol., 16, 951-956, 1986) to evaluate the immunity inducing ability.
Each of the immunity inducers was subcutaneously immunized and additionally abdominally immunized after 2 weeks. After the additional immunization, the blood was collected after 3 days and 7 days, and the serum was examined. The antibody titer in the obtained serum was evaluated by ELISA method. In ELISA method, using two types of antigens of an immunogen and a glycoprotein (Fetuin) containing 6′-Sialyl-LacNAc, 3′-Sialyl-LacNAc and LacNAc structures, they were evaluated as an antibody titer to the immunogen and an antibody titer to the objective carbohydrate, respectively.
In addition, in order to evaluate subclasses (IgM and IgG) of immunoglobulin, an antibody specific to IgM and IgG was used as a secondary antibody to evaluate the subclasses. The antibody titer was evaluated as an activity of peroxidase that is a labeling enzyme of a secondary antibody. TMB was used for a chromogenic substrate of peroxidase, and an intensity of an absorbance at 450 nm after adding 2 N-sulfuric acid after the reaction was evaluated.
Each of the immunity inducers was subcutaneously immunized on the first day, and the carrier compound was additionally abdominally immunized after 2 weeks. After the additional immunization, the blood was collected after 3 days and 7 days to prepare serums. Antibody titers of the obtained serums were evaluated by ELISA method. In ELISA method, using two types of antigens of an immunogen and a glycoprotein (Fetuin) containing a 6′-Sialyl-LacNAc structure, they were evaluated as an antibody titer to the immunogen and an antibody titer to the objective sugar chain, respectively. In addition, in order to evaluate subclasses (IgM and IgG) of produced immunoglobulin, an antibody specific to IgM and IgG was used as the secondary antibody to evaluate the subclasses. The antibody titer was evaluated as an activity of peroxidase that is a labeling enzyme of the secondary antibody. TMB was used for a chromogenic substrate of peroxidase, and an intensity of an absorbance at 450 nm after adding 2 N-sulfuric acid after the reaction was evaluated. […] Among the evaluated compounds, the antibody titer of a2 was the lowest, and the activity of a3-1 was the highest in the examined compounds.

glycoprotein (HL60) = assay: Serum antibody titer to HL60 glycoprotein after immunity induction (ELISA); assay type: in vivo, mouse
Protocol: FIG. 9 illustrates serum antibody titers after immunity inductions with sLe^X-C12L and Le^X-C12L: after immunizing a mouse using each of the sLe^X-C12L and Le^X-C12L compounds as an immunity inducer, an antibody titer of each subclass (IgM and IgG) of immunoglobulin in the serum was evaluated by ELISA. A and B show serum antibody titers of a mouse immunized with sLe^X-C12L, C and D show serum antibody titers of a mouse immunized with Le^X-C12. A and C: Evaluations on an immunogen used as an antigen by ELISA. B: Evaluation on a cell extract (HL60) containing a glycoprotein including an epitope of a target carbohydrate used as an antigen by ELISA. […]
Each immunogen was subcutaneously immunized on the first day, and additional immunization was abdominally conducted after two weeks. […] Antibody titers in the obtained serums were evaluated by ELISA. An immunogen and a glycoprotein containing an objective carbohydrate were used as solid-phased antigens by ELISA, and each was evaluated as an antibody titer to the immunogen and an antibody titer to the objective carbohydrate (FIGS. 1 to 4).
In order to evaluate subclasses (IgM and IgG) of produced immunoglobulin, evaluation was conducted using antibodies specific to IgM and IgG as secondary antibodies. An antibody titer was evaluated as an activity of peroxidase that is a labeling enzyme of a secondary antibody. […]

glycoprotein (Fetuin) = assay: Serum antibody titer to glycoprotein (Fetuin) after immunity induction (ELISA); assay type: in vivo; conditions: mouse serum 3 and 7 days after final immunization vs unimmunized; Fetuin-a used as antigen for c1
Protocol: as §1
In order to evaluate subclasses (IgM and IgG) of produced immunoglobulin, evaluation was conducted using antibodies specific to IgM and IgG as secondary antibodies. An antibody titer was evaluated as an activity of peroxidase that is a labeling enzyme of a secondary antibody. TMB was used as a chromogenic substrate of peroxidase, and an intensity of an absorbance at 450 nm after adding 2 N-sulfuric acid after the reaction was evaluated. FIGS. 1 to 3 illustrate antibody titers of IgM subclass, and FIG. 4 illustrates antibody titers of IgG subclass. […]
Each of the immunity inducers was subcutaneously immunized and additionally abdominally immunized after 2 weeks. […] The antibody titer in the obtained serum was evaluated by ELISA method. In ELISA method, using two types of antigens of an immunogen and a glycoprotein (Fetuin) containing 6′-Sialyl-LacNAc, 3′-Sialyl-LacNAc and LacNAc structures, they were evaluated as an antibody titer to the immunogen and an antibody titer to the objective carbohydrate, respectively.
In addition, in order to evaluate subclasses (IgM and IgG) of immunoglobulin, an antibody specific to IgM and IgG was used as a secondary antibody to evaluate the subclasses. The antibody titer was evaluated as an activity of peroxidase that is a labeling enzyme of a secondary antibody. TMB was used for a chromogenic substrate of peroxidase, and an intensity of an absorbance at 450 nm after adding 2 N-sulfuric acid after the reaction was evaluated. […]

[1] = system: glycoprotein (Fetuin) containing a 6′-Sialyl-LacNAc (CDw75) carbohydrate structure; conditions: Non Patent Literature 8, cited from earlier work

Compound	serum antibody titer to the immunogen, IgM subclass (immunogen)	serum antibody titer to the immunogen, IgG subclass (immunogen)	serum antibody titer to glycoprotein (Fetuin), IgM subclass (glycoprotein (Fetuin))	antibody titer in the IgG subclass (immunogen)	further results
CCCCCCCCCCCCC/C=C/[C@@H](O)C(CO[C@@H]1OC(CO)[C@@H](O[C@@H]2OC(CO)[C@H](O[C@H]3OC(CO)[C@H](O)C(O[C@@H]4OC(CO)[C@H](O)C(O)C4NC(C)=O)C3O)C(O)C2O)C(O)C1O)NC(=O)CCCCCCCCCCCCCCCCCCCCCCC (stereo partly drawn) [Globoside, GalNAcβ1,3Galα1,4Galβ1,4Glcβ1-Cer, reference compound]	significantly increased	not confirmed	–	–	serum antibody titer to the immunogen, IgM subclass (immunogen; listed as globoside): significant increase of the antibody titer
CCCCCCCCCCCCCCCCCCCCCCCC(=O)N[C@@H](CCCCCCCCCC)CO[C@@H]1O[C@H](CO)[C@@H](O[C@@H]2O[C@H](CO)[C@H](O)[C@H](O[C@]3(C(=O)O)C[C@H](O)[C@@H](NC(C)=O)[C@H]([C@H](O)[C@H](O)CO)O3)[C@H]2O)[C@H](O[C@@H]2O[C@@H](C)[C@@H](O)[C@@H](O)[C@@H]2O)[C@H]1NC(C)=O [sLe^X-C12L, Siaα2,3Galβ1,4(Fucα1,3)GlcNAcβ1-C12L]	significant increases of antibody titers	tendency of an increase of an antibody titer	–	–	serum antibody titer to glycoprotein (HL60), IgG subclass (glycoprotein (HL60); only primary additional immunization): significant increase of an antibody titer; serum antibody titer to glycoprotein (HL60), IgM subclass (glycoprotein (HL60); serums after 3 days and 7 days from the immunization): significant increases of antibody titers
CCCCCCCCCCCCCCCCCC(=O)NC(CCCCCCCCCC)CO[C@@H]1OC(CO)[C@@H](O[C@@H]2OC(CO[C@]3(C(=O)O)CC(O)[C@@H](NC(C)=O)C([C@H](O)[C@H](O)CO)O3)[C@H](O)C(O)C2O)C(O)C1NC(C)=O (stereo partly drawn) [a1, Siaα2,6Galβ1,4GlcNAcβ1-CerA]	significantly increased; also recorded: significant increases of antibody titers	–	significantly increased; also recorded: significant increases of antibody titers	not observed	–
Siaα2,3-Galβ1,4GlcNAcβ1-CerA [b1]	significantly increased; also recorded: significant increases of antibody titers	–	significantly increased; also recorded: significant increases of antibody titers	not observed	–
phosphatidylethanolamine	–	–	–	–	appearance ratio of positive clones, conventional technique ([1]; 581 wells): 1.3%; positive clones, conventional technique ([1]; out of selected 581 wells): 8 wells
CCCCCCCCCCC(CO[C@@H]1OC(CO)[C@@H](O[C@@H]2OC(CO[C@]3(C(=O)O)CC(O)[C@@H](NC(C)=O)C([C@H](O)[C@H](O)CO)O3)[C@H](O)C(O)C2O)C(O)C1NC(C)=O)NC(C)=O (stereo partly drawn) [a2, reference compound]	significant increases of antibody titers	–	significant increases of antibody titers	–	rank of antibody titer / activity among the evaluated compounds (immunogen; a1, a2, a3-1, a3-2, a3-3 compared, IgM subclass): lowest
